In publication PMC6071225 (Viruses, 2018):
Like-named read-outs stand apart in the source and are kept apart here.

Experiments:
wt NA2009 = assay type: biochemical
[1] = tested on: catalytic domain of wild-type NA2009; assay type: binding; details: wt
[2] = 50 mM MES (or ACES), pH 6.15, 25 °C
[3] = 50 mM MES (or ACES), pH 6.15, 25 °C, listed as Oseltamivir

`CCC(CC)O[C@@H]1C=C(C(=O)O)C[C@H](N)[C@H]1NC(C)=O` [oseltamivir carboxylate] was tested, and the “Fold Ki” value (wt NA2009; wt NA2009, compared with that of wt NA2009) was 1 fold, the Ki (wt NA2009; wt NA2009, mean ± s.d., two independent experiments, 37 °C) was 24 ± 4 nM and the “Fold Kd” value ([1]; compared with that of wt NA2009) was 1 fold. For the same compound, the Kd [1, 2] was 140 ± 20 nM, the ΔG [1, 2] was -9.4 ± 0.1 kcal/mol and the ΔH [1, 2] was -10.8 ± 0.1 kcal/mol. For the same compound, the “−T·ΔS” value [1, 2] was 1.5 ± 0.2 kcal/mol, the ΔG [1, 3] was -9.4 kcal/mol and the ΔH [1, 3] was -10.8 kcal/mol. For the same compound, the “−T·ΔS” value [1, 3] was 1.5 kcal/mol.
